The source of these data is paper PMC9841576, “Characterisation of C101248: A novel selective THIK-1 channel inhibitor for the modulation of microglial NLRP3-inflammasome” (Neuropharmacology, 2023).

Where two headings read alike, the source gives them in different places.

In one experiment the target is T1, THIK-1 (Homo sapiens, UniProt Q9HB14).
T1 construct: expressed in transfected cells
T1 sequence (Q9HB14 1-408): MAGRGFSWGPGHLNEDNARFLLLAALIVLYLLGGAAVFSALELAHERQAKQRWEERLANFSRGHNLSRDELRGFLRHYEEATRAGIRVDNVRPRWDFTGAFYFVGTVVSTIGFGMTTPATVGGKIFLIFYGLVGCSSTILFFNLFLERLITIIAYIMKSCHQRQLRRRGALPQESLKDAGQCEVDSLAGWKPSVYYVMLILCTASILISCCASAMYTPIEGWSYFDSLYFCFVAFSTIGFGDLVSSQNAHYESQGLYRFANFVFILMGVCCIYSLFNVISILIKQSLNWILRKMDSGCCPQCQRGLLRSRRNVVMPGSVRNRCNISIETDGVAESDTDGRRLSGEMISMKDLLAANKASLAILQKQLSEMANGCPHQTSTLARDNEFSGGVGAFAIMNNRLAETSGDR
In words: FLIPR thallium influx assay, HEK-hTHIK-1 cells. Format: cell-based. The method, then: HEK-293 cells were transfected with human THIK-1, TREK-1, TWIK-2, or mouse THIK-1 cDNA cloned into pcDNA3.1, using either Fugene HD transfection reagent (Promega) or electroporation (MaxCyte STX instrument). Cells stably expressing the relevant genes were selected based on resistance to 500 μg/ml geneticin (Gibco). For human THIK-1 and TWIK-2 expressing cells, monoclonal lines were isolated by limited dilution cloning; mouse THIK-1 and human TREK-1 expressing cells were maintained as polyclonal pools. The HEK-293 pools and monoclones stably expressing the relevant genes were maintained in DMEM (Life Technologies), supplemented with 10% FCIII (HyClone, Fetal clone III) and 500 μg/ml geneticin. A CHO-Kv2.1 cell line was purchased from Millipore (accession NM_004975) and maintained in F12 (Life Technologies), supplemented with 10% FCSIII (Thermo Scientific) and 500 μg/ml geneticin (Life Technologies). For thallium flux assays, banks of frozen cell aliquots were prepared the day prior to assay, cells were thawed into media and seeded into PDL coated 384-well plates (Corning) at 25,000 (human/mouse THIK-1, TREK-1) or 30,000 (TWIK-2) cells/well (25 μl/well). CHO-Kv2.1 cells were seeded into non-PDL coated plates (Corning) at 5000 cells/well. Plated cells were incubated overnight at 37 °C, 5% CO2 in a humidified atmosphere. For Q-Patch assays, cells were cultured for 7 days prior to assay, dissociated, and diluted to 1–2.5 million/ml in EX-CELL ACF serum free media containing HEPES (25 mM; Life Technologies), penicillin/streptomycin (100 U/ml, 100 μg/ml; Life Technologies) and a trypsin inhibitor (0.04 mg/ml).
A fluorescence-based thallium influx assay (Molecular Devices potassium assay kit) was used to monitor channel activity. In brief, component A was reconstituted in 17 ml of chloride-free assay buffer (130 mM sodium D-gluconate, 5 mM potassium D-gluconate, 2 mM calcium D-gluconate, 1 mM magnesium D-gluconate, 5 mM NaHCO3, 20 mM HEPES; pH adjusted to 7.4 with NaOH and filtered (0.45 μm filter)) and component C reconstituted in 30 μl of DMSO. Components A and C were combined, and probenecid was added (Life Technologies; final assay concentration (FAC) 4.75 mM for HEK cell lines and 2.47 mM for CHO-Kv2.1) to provide the final dye solution. Media was removed from the cell plates and replaced with dye (20 μl/well) and the plates were incubated at room temperature in the dark for 60 min. On the day of the assay, a diluted compound plate (3x FAC in 1.5% DMSO) was created. Control wells contained either DMSO vehicle (1.5%, 3x FAC) or tetrapentylammonium chloride (TPA; Sigma, 258962; 1.5 mM in 1.5% DMSO, 3x FAC). A 3x thallium stimulation plate was also prepared, to provide a FAC of either 1 mM (human THIK-1) or 3 mM (mouse THIK-1, TREK-1, TWIK-2) thallium sulphate (in assay buffer). For Kv2.1, the FAC of thallium sulphate was 2.6 mM and this was prepared in assay buffer containing potassium sulphate (Sigma P9458; FAC 23.3 mM). Following 60 min of dye loading, 10 μl from the 3x FAC compound plate was added into the cell plate, which was then incubated for 15 min at room temperature in the dark. Using a fluorescent imaging plate reader (FLIPR) tetra plate reader, 15 μl thallium stimulus solution was added to the cell plate and the fluorescence signal recorded every second for 1 min (excitation: 470–495 nm, emission: 515–575 nm).

A further experiment addresses T2, TREK-1 (Homo sapiens, UniProt O95069).
T2 construct: expressed in transfected cells
In words: FLIPR thallium influx assay, HEK-hTREK-1 cells. It counts as cell-based. As to conditions: HEK-hTREK-1, at 30 μM, compared to TPA controls; read-out: inhibition of constitutive activity. As for the experimental part:
(§1) HEK-293 cells were transfected with human THIK-1, TREK-1, TWIK-2, or mouse THIK-1 cDNA cloned into pcDNA3.1, using either Fugene HD transfection reagent (Promega) or electroporation (MaxCyte STX instrument). Cells stably expressing the relevant genes were selected based on resistance to 500 μg/ml geneticin (Gibco). For human THIK-1 and TWIK-2 expressing cells, monoclonal lines were isolated by limited dilution cloning; mouse THIK-1 and human TREK-1 expressing cells were maintained as polyclonal pools. The HEK-293 pools and monoclones stably expressing the relevant genes were maintained in DMEM (Life Technologies), supplemented with 10% FCIII (HyClone, Fetal clone III) and 500 μg/ml geneticin. A CHO-Kv2.1 cell line was purchased from Millipore (accession NM_004975) and maintained in F12 (Life Technologies), supplemented with 10% FCSIII (Thermo Scientific) and 500 μg/ml geneticin (Life Technologies). […]
(§2) A fluorescence-based thallium influx assay (Molecular Devices potassium assay kit) was used to monitor channel activity. […] Using a fluorescent imaging plate reader (FLIPR) tetra plate reader, 15 μl thallium stimulus solution was added to the cell plate and the fluorescence signal recorded every second for 1 min (excitation: 470–495 nm, emission: 515–575 nm).

For the next experiment, the target named is T3, Kv2.1 (Homo sapiens, UniProt Q14721).
T3 construct: host or cells: CHO
Description: FLIPR thallium influx assay, potassium sulphate stimulated CHO-Kv2.1 cells. Format: cell-based. The note with it: potassium sulphate stimulated CHO-Kv2.1, at 30 μM; read-out: inhibition of thallium flux. The method, then:
as §1, §2

Experiment [1] concerns NLRP3-dependent release of IL-1β. Description: LPS/ATP-induced IL-1β release from adult microglia. Format: cell-based, mouse. The note with it: 0.1 and 1 μM. The method, then: Microglia were isolated from C57BL/6 male and female mice aged 6–10 weeks (Charles River, UK) as previously described ([Drinkall et al., 2022]). In brief, brains were isolated, minced, and digested using a Neural Tissue Dissociation Kit (Miltenyi Biotec Ltd., UK) according to manufacturer's instructions. The resulting suspension was dissociated using a Dounce tissue grinder (Sigma). Myelin was removed by centrifuging cell suspension in 33% Percoll (GE Healthcare) for 10 min at 1000 g with low break and aspiration of myelin layer. Cells were pelleted by diluting 1:4 in Ca^2+/Mg^2+ free Hank's balanced salt solution (CMF-HBSS, Gibco) and centrifuged for 10 min at 500 g. […] The eluted microglia were counted and plated onto 96-well Cell + plates (Sarstedt) at a density of 30,000 cells per well in culture medium (DMEM/F12, 10% FBS, 1% PenStrep, 2 mM glutamine, 20 ng/ml IL-34 (R&D Systems), and 50 ng/ml transforming growth factors-β1 (Miltenyi Biotec Ltd., UK)). […]
IL-1β from culture supernatants was measured with DuoSet ELISA kit (R&D Systems) following the manufacturer instructions.

T2 sequence (O95069 whole entry): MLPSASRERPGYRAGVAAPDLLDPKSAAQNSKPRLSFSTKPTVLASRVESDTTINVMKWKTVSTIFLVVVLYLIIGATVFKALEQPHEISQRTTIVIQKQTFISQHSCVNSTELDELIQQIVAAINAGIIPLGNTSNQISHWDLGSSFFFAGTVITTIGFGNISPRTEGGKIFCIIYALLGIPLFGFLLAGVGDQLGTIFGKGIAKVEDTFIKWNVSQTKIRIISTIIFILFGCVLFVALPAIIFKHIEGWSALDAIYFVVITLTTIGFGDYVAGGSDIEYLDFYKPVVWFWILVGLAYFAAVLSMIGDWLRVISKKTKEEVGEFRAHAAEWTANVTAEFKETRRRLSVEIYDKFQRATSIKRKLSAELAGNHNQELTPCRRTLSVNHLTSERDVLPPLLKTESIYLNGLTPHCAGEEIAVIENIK
T3 sequence (Q14721 whole entry): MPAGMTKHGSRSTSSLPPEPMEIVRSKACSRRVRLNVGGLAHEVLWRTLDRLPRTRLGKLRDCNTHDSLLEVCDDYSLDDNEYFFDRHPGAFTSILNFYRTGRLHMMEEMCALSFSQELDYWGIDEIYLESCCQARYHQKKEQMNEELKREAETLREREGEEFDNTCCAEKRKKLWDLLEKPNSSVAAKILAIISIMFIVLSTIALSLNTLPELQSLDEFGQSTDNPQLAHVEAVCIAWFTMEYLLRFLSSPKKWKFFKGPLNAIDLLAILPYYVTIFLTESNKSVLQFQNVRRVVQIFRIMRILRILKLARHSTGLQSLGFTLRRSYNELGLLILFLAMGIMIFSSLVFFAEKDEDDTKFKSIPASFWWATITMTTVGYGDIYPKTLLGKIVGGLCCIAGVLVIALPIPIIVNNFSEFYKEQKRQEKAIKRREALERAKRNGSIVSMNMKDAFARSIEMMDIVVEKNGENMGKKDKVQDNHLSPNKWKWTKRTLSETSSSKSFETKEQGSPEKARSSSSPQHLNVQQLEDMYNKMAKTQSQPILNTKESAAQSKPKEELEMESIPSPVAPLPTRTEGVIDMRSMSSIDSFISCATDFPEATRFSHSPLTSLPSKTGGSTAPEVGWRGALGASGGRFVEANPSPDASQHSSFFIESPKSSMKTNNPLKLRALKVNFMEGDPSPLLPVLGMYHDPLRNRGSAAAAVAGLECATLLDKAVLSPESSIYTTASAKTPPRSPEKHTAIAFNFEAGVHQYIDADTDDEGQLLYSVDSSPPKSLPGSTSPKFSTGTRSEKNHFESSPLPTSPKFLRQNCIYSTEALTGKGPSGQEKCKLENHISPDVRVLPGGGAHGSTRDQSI

In the case of `Nc1nonc1-c1nc2ccccc2n1Cc1ccncc1` [C101248], the IC50 at THIK-1 (HEK-hTHIK-1, normalised to TPA controls, read-out: IC50, inhibition of THIK-1 constitutive activity (thallium influx)) was 46 nM; on THIK-1 (human THIK-1, read-out: IC50, inhibition of human THIK-1 (abstract)), roughly 50 nM. In addition, the maximum inhibition on THIK-1 (HEK-hTHIK-1, thallium influx, normalised to TPA controls) is recorded as 102%. Also, on THIK-1 (human and mouse THIK-1 constitutive activity, thallium influx and Q-patch), the “potency relative to tetrapenthylammonium chloride (TPA)” value amounted to 100 times. The inhibition at 30 µM on TREK-1 was 18%; on Kv2.1, -3%. For the same molecule, the “effect on LPS/ATP-induced IL-1β release” value in experiment [1] is on record as “significantly attenuated”.

For orientation: IC50 means the point on the concentration scale where inhibition reaches its midpoint. As a reminder, the inhibition is the relative decrease from the control value, in per cent.
